# Data from patent publication US20250154525A1, “PLANT VIRUS MOVEMENT PROTEINS AND METHODS OF USING SAME” (Molecular Transfer, Inc., priority 2016, published 2025).
# Values joined by “and” are separate entries in the source; they are usually repeats but may differ in a detail not shown here. Equal values may be shown once.
# Experiments:
# [1] = test system: HeLa Cells; assay: GFP plasmid transfection with DOTMA/DOPE plus surface ligand peptide, fluorescent plate reader (Example 1); format: cell-based; conditions: DOTMA/DOPE + peptide linked to R12 or K16; EF1Alpha eGFP plasmid; 42 hours
# Description: (§1) Cells were plated to so that on the day of transfection the cells were 70% confluent in 96 well tissue culture plates. A DOMTA/DOPE Lipid solution (1:1 molar ratio) at 2 mg/mL in water were mixed with an equal volume cell surface ligand containing adhesion peptide, the plant virus movement protein, or peptide derived therefrom, that had the nucleic acid binding moiety RRRRRRRRRRRR (SEQ ID NO:109) or KKKKKKKKKKKKKKKK (SEQ ID NO: 102) covalently linked to the N-terminus, or C-terminus of each peptide during peptide synthesis. Peptides were at 2 mg/mL in water. The DOTMA/DOPE and the solution containing the cell surface ligand containing adhesion peptide, the plant virus movement protein, or peptide derived therefrom, surface ligand peptide the was diluted 1 to 1 (v/v) in water. DOMTA/DOPE/PEPTIDE solutions were added to 0.1 mL of a plasmid DNA solution (EF1Alpha eGFP plasmid) at 10 μg/mL in OptiMEM.
# (§2) All solutions were at room temperature. A volume of 0.2 mL of a 10 μg/mL solution of DNA was aliquoted into each well of a non-tissue cultured treated plate. 1-12 μL of transfection reagents were added to DNA solutions respectively. The transfection reagent and DNA solution was mixed by pipetting up and down twice. Transfection complexes were formed for 10 minutes. After 10 minutes, 0.01 or 0.02 mL of the transfection complex was added to cells. HuVEC, HeLa, human adult keratinocytes, human primary adult fibroblast, and A549 cells all respectively received 0.01 mL of the transfection complex. Human skeletal muscle cells, mouse C2C12 cells, and Jurkat, cells received 0.02 mL of the transfection complex. Cells were incubated for 42 hours at 37° C. at 5% CO2. Plates were read on a fluorescent plate reader. Cells were also examined visually under a microscope to assess the extent of transfection (in terms of the percent of cells transfected) with a fluorescent microscope. Other modes of analysis, for example quantification with B-galactocidase or luciferase reports plasmids can also be used.
# (§3) Surface ligand that caused increase expression of GFP over the lipid DOTMA with no surface ligand were considered to enhance transfection or had higher % cells transfected were considered to enhance transfection. Peptides that gave greater than 2-fold enhancement are noted in bold and could be further optimized by adding different transfection enhancers or could be used with different cationic lipids or polymers.
# (§4) Tables 2-7, below, provide the results of the transfection enhancements with the various cell types, while Table 8 lists the peptides that were determined by visual inspection to enhance the transfection of the denoted cell lines over the lipid DOTMA.
# [2] = test system: NL-1 iPS Cells; assay: as above; format: cell-based; conditions: DOTMA/DOPE + peptide linked to R12 or K16; EF1Alpha eGFP plasmid; 42 hours
# Description: as §1, §2, §3, §4
# [3] = test system: HuVec Cells; assay: as above; format: cell-based; conditions: DOTMA/DOPE + peptide linked to R12 or K16; EF1Alpha eGFP plasmid; 42 hours
# Description: as §1, §2, §3, §4
# [4] = test system: Human Fibroblast Cells; assay: as above; format: cell-based; conditions: DOTMA/DOPE + peptide linked to R12 or K16; EF1Alpha eGFP plasmid; 42 hours
# Description: as §1, §2, §3, §4
# [5] = test system: Jurkat Cells; assay: as above; format: cell-based; conditions: DOTMA/DOPE + peptide linked to R12 or K16; EF1Alpha eGFP plasmid; 42 hours
# Description: as §1, §2, §3, §4
# [6] = test system: C2C12 Cells; assay: as above; format: cell-based, mouse; conditions: DOTMA/DOPE + peptide linked to R12 or K16; EF1Alpha eGFP plasmid; 42 hours
# Description: as §1, §2, §3, §4
# [7] = test system: some examined cell types; assay: Summary of Example 1: transfection expression and % cells transfected over the no peptide control; format: cell-based; conditions: on some examined cell types
# Description: as §1, §2, §3
# [8] = test system: HeLa Cells; assay: GFP transfection with DOTMA/SEQ ID NO: 72 (fusogenic peptide)/peptide compared with Lipofectamine 2000; format: cell-based
# Description: as §1, §2
# The fusogenic peptide was added to the DOMTA/peptide formulation to achieve a final concentration of 0.1 mg/mL to see if transfection reagents were further enhanced by the addition of a fusogenic peptide and could provide higher transfection efficiency into HeLa cells and expression than the commercially available Lipofectamine 2000.
# [9] = 0.1 μL of DOTMA/SEQ ID NO: 72/Peptide in well of a 96 well plate
# [10] = 0.2 μL of DOTMA/SEQ ID NO: 72/Peptide in well of a 96 well plate
# [11] = 0.3 μL of DOTMA/SEQ ID NO: 72/Peptide in well of a 96 well plate
# [12] = 0.4 μL of DOTMA/SEQ ID NO: 72/Peptide in well of a 96 well plate
Substance,Relative Fluorescence of Transfection of HeLa Cells (RF) [1],Relative Fluorescence of Transfection of NL-1 iPS Cells (RF) [2],Relative Fluorescence of Transfection of HuVec Cells (RF) [3],Relative Fluorescence of Transfection of Human Fibroblast Cells (RF) [4],Relative Fluorescence of Transfection of Jurkat Cells (RF) [5],Relative Fluorescence of Transfection of C2C12 Cells (RF) [6],transfection expression and % cells transfected over the no peptide control [7],"Relative Fluorescence DOTMA/SEQ ID NO: 72/Peptide, HeLa Cells (RF) [8, 9]","Relative Fluorescence DOTMA/SEQ ID NO: 72/Peptide, HeLa Cells (RF) [8, 10]","Relative Fluorescence DOTMA/SEQ ID NO: 72/Peptide, HeLa Cells (RF) [8, 11]","Relative Fluorescence DOTMA/SEQ ID NO: 72/Peptide, HeLa Cells (RF) [8, 12]"
107 (RRRRRRRR) [compound 107],75,1441,–,–,–,–,–,–,–,–,–
205 (AASIKVAVSADR) [compound 205],26368,13140,8309,8550,2298,2102,increased transfection expression and the % cells transfected,–,–,–,–
216 (YRVRVTPKEKTGPMKE) [compound 216],6181,19626,14693,3117,3570,1001,increased transfection expression and the % cells transfected,–,–,–,–
220 (ATETTITIS) [compound 220],9398,15892,8737,4516,6428,1470,increased transfection expression and the % cells transfected,–,–,–,–
224 (KPDVRSYTITG) [compound 224],5559,25209,15945,5995,13170,1469,–,–,–,–,–
226 (ANGQTPIQRYIK) [compound 226],7340,24920,20864,3431,12976,1664,increased transfection expression and the % cells transfected,–,–,–,–
229 (PPFLMLLKGSTR) [compound 229],8816,13491,5452,6811,8079,1164,increased transfection expression and the % cells transfected,–,–,–,–
230 (WQPPRARI) [compound 230],8944,14524,9067,11771,10229,2606,increased transfection expression and the % cells transfected,–,–,–,–
234 (YEKPGSPPREVVPRPRPGV) [compound 234],3867,14410,13956,4145,5441,681,–,–,–,–,–
235 (KARSFNVNQLLQD) [compound 235],–,–,26940,–,–,–,–,–,–,–,–
236 (KNNQKSEPLIGRKKT) [compound 236],7202 and 5042,43542 and 22256,14418,3630 and 3000,–,–,increased transfection expression and the % cells transfected,5993,8846,8492,7316
239 (KNSFMALYLSKGRLVFALG) [compound 239],2717,4129,1404,4084,2343,10620,increased transfection expression and the % cells transfected,–,–,–,–
335 (TVFSVDQDNMLE) [compound 335],26954,14424,6350,8534,4567,4689,–,12866,12458,11547,9753
349 (RNIAEIIKDI) [compound 349],4433,33103,22907,8810,23167,–,increased transfection expression and the % cells transfected,–,–,–,–
363 (LAGSCLARFSTM) [compound 363],2590,4189,1383,3008,2432,1080,–,–,–,–,–
371 (GPAGKDGEAGAQG) [compound 371],5180,17587,10669,4584,6093,983,–,–,–,–,–
393 (LGTIPG) [compound 393],–,–,–,–,–,–,increased transfection expression and the % cells transfected,–,–,–,–
501 (DLGTAGSCLRRFSTM) [compound 501],–,–,–,9473,12350,5913,increased transfection expression and the % cells transfected,23571,23993,20410,14749
502 (RNIAEIIKDI) [compound 502],–,–,–,–,–,2589,–,–,–,–,–
